Reference: the supplement of paper PMC11208160

Assay: recombinant barcode read abundance after kanamycin selection (control-corrected) (log10(CPM+1)); higher = more efficient recombination; sequences stand for … in AGTGCAGAGAAAATCGGCCAGTTTTCTCTGCCTGCAGTCCGCATGCCGT…AGATTTATGCAGCGGACTGCCTTTCTCCCAAAGTGATAAACCGGACAGTATCATGGACCGGTTTTCCCGGTAATCCGTATTTGCAAGGTTGGTTTCACT; site = the 11-nt target
Procedure, shortened: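 Targets and IS621 bridge RNA target-binding loops were paired in oligos, each with a promoter, a barcode and the J23119-driven first 104 bridge RNA bases. A vector carrying the remaining 73 bp and a T7-inducible recombinase received these by Gibson cloning, and the pool was co-electroporated into E. coli with a donor plasmid. Duplicate plates contained chloramphenicol/ampicillin LB agar (control) or chloramphenicol/ampicillin/kanamycin with 0.1 mM IPTG. Recombination efficiency comes from averaged, control-corrected counts per million of recombinant-junction barcodes, reported as log10(CPM+1).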
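Also: IS621 recombinase and bridge RNA in Escherichia coli cells.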

Sequence | recombinant barcode read abundance (log10)
GAGTGAACTTGGGTTCTAACCTGTTGCCA (site GAGTGAACTTG) | 0.849
GAGTGAACTTGGGTTCTAACCTGTTGCCA (site GTGTGTACTTG) | 0.435
GAGTGCCCTTGGGTTCTAACCTGTTGCTT (site GAGTGCCCTAA) | 0.78
GAGTGCCCTTGGGTTCTAACCTGTTGCTT (site GTGTGGCCTAA) | 0.128
GAGTGGCCTTGGGTTCTAACCTGTTGCAT (site GAGTGGCCTAA) | 0.242
GAGTGGCCTTGGGTTCTAACCTGTTGCAT (site GAGTGGCCTAC) | 0.385
GAGTGGCCTTGGGTTCTAACCTGTTGCAT (site GAGTGGCCTAG) | 0.318
GAGTGGCCTTGGGTTCTAACCTGTTGCAT (site GAGTGGCCTAT) | 0.883
GAGTGGCCTTGGGTTCTAACCTGTTGCGG (site GAGTAGCCTCC) | 0.831
GAGTGGCCTTGGGTTCTAACCTGTTGCGG (site GAGTCGCCTCC) | 0.0473
GAGTGGCCTTGGGTTCTAACCTGTTGCGG (site GAGTGGCCTCC) | 1.84
GAGTGGCCTTGGGTTCTAACCTGTTGCGG (site GAGTTGCCTCC) | 0.00446
GAGTGGCCTTGGGTTCTAACCTGTTGCTT (site GAGTGGCCTAA) | 1.54
GAGTGGCCTTGGGTTCTAACCTGTTGCTT (site GAGTGGCCTAC) | 0.494
GAGTGGCCTTGGGTTCTAACCTGTTGCTT (site GAGTGGCCTAG) | 0.068
GAGTGGCCTTGGGTTCTAACCTGTTGCTT (site GAGTGGCCTAT) | 0.541
GAGTTACCTTGGGTTCTAACCTGTTGCGT (site GAGTTACCTAC) | 2.6
GAGTTACCTTGGGTTCTAACCTGTTGCGT (site GAGTTCCCTAC) | 0.192
GAGTTACCTTGGGTTCTAACCTGTTGCGT (site GAGTTGCCTAC) | 0.229
GAGTTACCTTGGGTTCTAACCTGTTGCGT (site GAGTTTCCTAC) | 0.0625
GAGTTCACTTGGGTTCTAACCTGTTGCCT (site GAGTTCACTAG) | 0.618
GAGTTCACTTGGGTTCTAACCTGTTGCCT (site GGGTTCACTCG) | 0.0995

Sequence | recombinant barcode read abundance (log10)
GAGTTCGCTTGGGTTCTAACCTGTTGCGG (site GAGTTCGCTCC) | 1.08
GAGTTCGCTTGGGTTCTAACCTGTTGCGG (site TAGTCCGCTCC) | 0
GAGTTGTCTTGGGTTCTAACCTGTTGCGG (site CTCGCCACTAG) | 0.0798
GAGTTGTCTTGGGTTCTAACCTGTTGCGG (site GAGTTGTCTCC) | 1.83
GATAACGCTTGGGTTCTAACCTGTTGCCT (site ATGGTACCTTA) | 0.0115
GATAACGCTTGGGTTCTAACCTGTTGCCT (site GATAACGCTAG) | 1.05
GATACGCCTTGGGTTCTAACCTGTTGCCT (site GATACGACTAG) | 0.0197
GATACGCCTTGGGTTCTAACCTGTTGCCT (site GATACGCCTAG) | 0.134
GATACGCCTTGGGTTCTAACCTGTTGCCT (site GATACGGCTAG) | 0.167
GATACGCCTTGGGTTCTAACCTGTTGCCT (site GATACGTCTAG) | 0.139
GATACGTCTTGGGTTCTAACCTGTTGCCT (site GATACGACTAG) | 0.352
GATACGTCTTGGGTTCTAACCTGTTGCCT (site GATACGCCTAG) | 0.187
GATACGTCTTGGGTTCTAACCTGTTGCCT (site GATACGGCTAG) | 0.195
GATACGTCTTGGGTTCTAACCTGTTGCCT (site GATACGTCTAG) | 0.623
GATAGAACTTGGGTTCTAACCTGTTGCTT (site GAGAGGACTAA) | 0.204
GATAGAACTTGGGTTCTAACCTGTTGCTT (site GATAGAACTAA) | 0.94
GATAGGACTTGGGTTCTAACCTGTTGCCT (site GATAGGACTAG) | 0.647
GATAGGACTTGGGTTCTAACCTGTTGCCT (site GATGGGACTCG) | 0
GATATAGCTTGGGTTCTAACCTGTTGCCT (site GATAGAGCTCG) | 0.54
GATATAGCTTGGGTTCTAACCTGTTGCCT (site GATATAGCTAG) | 1.06
GATCAACCTTGGGTTCTAACCTGTTGCCT (site GATCAACCTAG) | 1.62
GATCAACCTTGGGTTCTAACCTGTTGCCT (site GCTCAACCTAG) | 0.0583

Sequence | recombinant barcode read abundance (log10)
GATCAACCTTGGGTTCTAACCTGTTGCCT (site GGTCAACCTAG) | 0.0197
GATCAACCTTGGGTTCTAACCTGTTGCCT (site GTTCAACCTAG) | 0.235
GATCACCCTTGGGTTCTAACCTGTTGCAT (site CGAGTGTCTTA) | 0.193
GATCACCCTTGGGTTCTAACCTGTTGCAT (site GATCACCCTAT) | 1.68
GATCGATCTTGGGTTCTAACCTGTTGCAT (site GATCGATCTAA) | 0.0308
GATCGATCTTGGGTTCTAACCTGTTGCAT (site GATCGATCTAC) | 0.163
GATCGATCTTGGGTTCTAACCTGTTGCAT (site GATCGATCTAG) | 0.307
GATCGATCTTGGGTTCTAACCTGTTGCAT (site GATCGATCTAT) | 0.666
GATGAGACTTGGGTTCTAACCTGTTGCCG (site GATGAGACTCG) | 2.22
GATGAGACTTGGGTTCTAACCTGTTGCCG (site GCTGAGACTCG) | 0.223
GATGAGTCTTGGGTTCTAACCTGTTGCCT (site GATGAGTCTAA) | 0.71
GATGAGTCTTGGGTTCTAACCTGTTGCCT (site GATGAGTCTAG) | 1.9
GATGCCTCTTGGGTTCTAACCTGTTGCCT (site GAAGCATCTAG) | 0.147
GATGCCTCTTGGGTTCTAACCTGTTGCCT (site GATGCCTCTAG) | 2.06
GATGCGACTTGGGTTCTAACCTGTTGCCG (site GATGCGACTCG) | 0.968
GATGCGACTTGGGTTCTAACCTGTTGCCG (site GATGTGACTAG) | 0.121
GATGCTACTTGGGTTCTAACCTGTTGCCA (site GATCCTACTTG) | 0.124
GATGCTACTTGGGTTCTAACCTGTTGCCA (site GATGCTACTTG) | 0.0236
GATGCTTCTTGGGTTCTAACCTGTTGCTT (site AATGCTTCTAA) | 0.101
GATGCTTCTTGGGTTCTAACCTGTTGCTT (site GATGCTTCTAA) | 0.223
GATGGACCTTGGGTTCTAACCTGTTGCTA (site ATGTCTGCTAG) | 0.0118
GATGGACCTTGGGTTCTAACCTGTTGCTA (site GATGGACCTTA) | 2.39

Sequence | recombinant barcode read abundance (log10)
GATGGCCCTTGGGTTCTAACCTGTTGCCT (site GATGGCCCTAG) | 1.23
GATGGCCCTTGGGTTCTAACCTGTTGCCT (site GCTGGCCCTAG) | 0.103
GATGGCCCTTGGGTTCTAACCTGTTGCCT (site GGTGGCCCTAG) | 0.113
GATGGCCCTTGGGTTCTAACCTGTTGCCT (site GTTGGCCCTAG) | 0.127
GATGGGCCTTGGGTTCTAACCTGTTGCGT (site GATGGGCCTAC) | 2.54
GATGGGCCTTGGGTTCTAACCTGTTGCGT (site GCTGGGCCTTC) | 0.246
GATGTACCTTGGGTTCTAACCTGTTGCCT (site AATGTACCTAG) | 0.984
GATGTACCTTGGGTTCTAACCTGTTGCCT (site CATGTACCTAG) | 0.43
GATGTACCTTGGGTTCTAACCTGTTGCCT (site GATGTACCTAG) | 1.7
GATGTACCTTGGGTTCTAACCTGTTGCCT (site TATGTACCTAG) | 1.06
GATGTGACTTGGGTTCTAACCTGTTGCCT (site GATGCGACTCG) | 0.182
GATGTGACTTGGGTTCTAACCTGTTGCCT (site GATGTGACTAG) | 2.3
GATTAGACTTGGGTTCTAACCTGTTGCCT (site AATTAGACTAG) | 0.308
GATTAGACTTGGGTTCTAACCTGTTGCCT (site CATTAGACTAG) | 0.0591
GATTAGACTTGGGTTCTAACCTGTTGCCT (site GATTAGACTAG) | 1.09
GATTAGACTTGGGTTCTAACCTGTTGCCT (site TATTAGACTAG) | 0.331
GATTCACCTTGGGTTCTAACCTGTTGCCT (site AATTCACCTAG) | 0.543
GATTCACCTTGGGTTCTAACCTGTTGCCT (site CATTCACCTAG) | 0.0425
GATTCACCTTGGGTTCTAACCTGTTGCCT (site GATTCACCTAG) | 0.739
GATTCACCTTGGGTTCTAACCTGTTGCCT (site TATTCACCTAG) | 0.274
